Source: the supplement of paper PMC12463676, “Small-molecule dissolution of stress granules by redox modulation benefits ALS models” (Nature Chemical Biology, 2025)

How the values were obtained:
lipoamide = compound: NC(=O)CCCCC1CCSS1 [lipoamide]; assay: thermal stability z-score vs DMSO; higher = more thermally stabilized by treatment; conditions: HeLa, lipoamide concentration 100 µM
Description: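 Cellular thermal proteome profiling in HeLa cells. Cells were treated with 100 µM lipoamide for 1 h, with or without 1 mM arsenate for a further 1 h, then heated to ten temperatures (37-66.3 °C), and soluble protein was quantified by TMT mass spectrometry relative to 0.1% DMSO controls. The thermal stability score (sum of log2 fold changes minus the abundance score) was transformed to a z-score; mean of n = 3 experiments.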

potassium arsenate = compound: O=[As]([O-])(O)O.[K+] [potassium arsenate]; assay: as above; conditions: HeLa; arsenate concentration 1 mM
Description: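 Cellular thermal proteome profiling in HeLa cells treated with 1 mM arsenate for 1 h (DMSO pretreatment), heated to ten temperatures (37-66.3 °C). Soluble protein was quantified by TMT mass spectrometry relative to DMSO controls; the thermal stability score was transformed to a z-score; mean of n = 3 experiments.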

[1] = arsenate co-treatment: 1 mM arsenate 1 h
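Note: each temperature applied for 3 min, abundance score taken as mean log2 fold change at the two lowest temperatures, z-score obtained by mean subtraction and division by SD.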

UniProt Q86XA9, sequence (Q86XA9 whole entry): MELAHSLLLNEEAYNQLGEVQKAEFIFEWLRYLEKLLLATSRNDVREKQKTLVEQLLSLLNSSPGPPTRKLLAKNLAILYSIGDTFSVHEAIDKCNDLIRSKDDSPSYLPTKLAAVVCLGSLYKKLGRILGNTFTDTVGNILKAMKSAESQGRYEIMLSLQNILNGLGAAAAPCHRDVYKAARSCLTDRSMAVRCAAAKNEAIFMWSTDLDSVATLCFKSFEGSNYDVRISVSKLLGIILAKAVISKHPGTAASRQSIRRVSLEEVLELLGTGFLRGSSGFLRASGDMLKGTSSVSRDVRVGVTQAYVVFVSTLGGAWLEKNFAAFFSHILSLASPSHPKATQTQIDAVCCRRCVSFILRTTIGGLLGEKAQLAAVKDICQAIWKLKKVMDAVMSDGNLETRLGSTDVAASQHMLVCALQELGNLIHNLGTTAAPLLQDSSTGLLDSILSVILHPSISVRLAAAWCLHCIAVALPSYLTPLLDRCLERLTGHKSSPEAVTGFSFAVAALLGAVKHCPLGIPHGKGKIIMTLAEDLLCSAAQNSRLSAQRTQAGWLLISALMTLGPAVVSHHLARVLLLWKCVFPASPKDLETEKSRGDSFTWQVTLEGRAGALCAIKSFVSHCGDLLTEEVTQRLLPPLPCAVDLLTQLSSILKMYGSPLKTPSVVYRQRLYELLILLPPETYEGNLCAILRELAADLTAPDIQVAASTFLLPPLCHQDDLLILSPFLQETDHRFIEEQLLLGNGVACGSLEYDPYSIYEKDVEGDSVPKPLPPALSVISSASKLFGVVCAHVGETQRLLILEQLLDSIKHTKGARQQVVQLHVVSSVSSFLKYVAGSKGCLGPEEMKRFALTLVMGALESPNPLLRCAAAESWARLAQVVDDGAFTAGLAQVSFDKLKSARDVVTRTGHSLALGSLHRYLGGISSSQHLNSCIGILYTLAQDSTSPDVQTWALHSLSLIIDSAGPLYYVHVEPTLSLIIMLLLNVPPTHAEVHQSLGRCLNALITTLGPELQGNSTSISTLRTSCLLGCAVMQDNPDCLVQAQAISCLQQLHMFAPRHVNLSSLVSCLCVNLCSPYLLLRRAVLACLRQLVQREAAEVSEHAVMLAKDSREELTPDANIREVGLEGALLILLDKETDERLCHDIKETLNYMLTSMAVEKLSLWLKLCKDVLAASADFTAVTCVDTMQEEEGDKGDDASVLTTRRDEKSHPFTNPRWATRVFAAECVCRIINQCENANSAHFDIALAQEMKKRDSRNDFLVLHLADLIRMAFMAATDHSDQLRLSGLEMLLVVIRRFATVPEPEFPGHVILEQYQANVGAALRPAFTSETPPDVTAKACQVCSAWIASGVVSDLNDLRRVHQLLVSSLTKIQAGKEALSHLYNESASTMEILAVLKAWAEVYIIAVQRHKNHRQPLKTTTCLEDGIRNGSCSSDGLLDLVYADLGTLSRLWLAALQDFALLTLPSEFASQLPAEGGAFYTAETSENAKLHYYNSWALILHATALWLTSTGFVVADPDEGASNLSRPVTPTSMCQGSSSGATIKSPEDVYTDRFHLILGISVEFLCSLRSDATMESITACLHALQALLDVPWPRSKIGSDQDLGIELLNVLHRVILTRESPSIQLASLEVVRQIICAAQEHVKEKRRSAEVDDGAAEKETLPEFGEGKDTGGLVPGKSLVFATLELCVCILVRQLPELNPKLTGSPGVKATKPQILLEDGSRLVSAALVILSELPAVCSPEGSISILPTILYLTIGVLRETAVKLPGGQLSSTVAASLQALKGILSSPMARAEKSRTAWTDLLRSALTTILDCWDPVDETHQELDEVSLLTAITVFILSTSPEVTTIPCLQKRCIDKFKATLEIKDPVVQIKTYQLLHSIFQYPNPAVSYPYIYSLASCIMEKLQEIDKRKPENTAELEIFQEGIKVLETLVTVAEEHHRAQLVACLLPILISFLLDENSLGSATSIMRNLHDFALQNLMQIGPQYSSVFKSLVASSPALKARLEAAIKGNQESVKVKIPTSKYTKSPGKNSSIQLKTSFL
UniProt Q96TC7, sequence (Q96TC7 whole entry): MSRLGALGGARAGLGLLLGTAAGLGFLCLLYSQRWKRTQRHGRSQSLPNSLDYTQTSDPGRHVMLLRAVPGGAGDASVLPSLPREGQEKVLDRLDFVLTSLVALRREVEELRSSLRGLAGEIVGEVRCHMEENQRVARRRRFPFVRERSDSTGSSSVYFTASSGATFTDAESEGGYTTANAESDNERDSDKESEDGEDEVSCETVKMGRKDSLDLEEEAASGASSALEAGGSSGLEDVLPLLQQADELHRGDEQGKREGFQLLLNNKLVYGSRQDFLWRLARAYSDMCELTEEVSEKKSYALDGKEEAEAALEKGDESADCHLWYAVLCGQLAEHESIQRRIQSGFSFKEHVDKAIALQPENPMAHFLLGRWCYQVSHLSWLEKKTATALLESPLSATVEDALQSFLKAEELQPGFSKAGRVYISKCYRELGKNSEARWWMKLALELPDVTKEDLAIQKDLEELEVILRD
UniProt O43913, sequence (O43913 whole entry): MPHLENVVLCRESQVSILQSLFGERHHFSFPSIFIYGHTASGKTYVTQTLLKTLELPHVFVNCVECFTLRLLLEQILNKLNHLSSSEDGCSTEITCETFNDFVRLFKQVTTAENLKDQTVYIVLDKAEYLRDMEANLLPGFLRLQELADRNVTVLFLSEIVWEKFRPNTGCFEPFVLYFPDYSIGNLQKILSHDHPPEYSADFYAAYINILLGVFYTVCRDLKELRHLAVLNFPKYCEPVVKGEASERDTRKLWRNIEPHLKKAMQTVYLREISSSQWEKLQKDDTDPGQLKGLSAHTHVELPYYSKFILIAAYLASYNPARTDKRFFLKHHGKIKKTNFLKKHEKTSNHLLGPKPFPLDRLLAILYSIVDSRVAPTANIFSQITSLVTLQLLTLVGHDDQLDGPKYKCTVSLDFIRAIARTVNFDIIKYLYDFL
UniProt Q15311, sequence (Q15311 whole entry): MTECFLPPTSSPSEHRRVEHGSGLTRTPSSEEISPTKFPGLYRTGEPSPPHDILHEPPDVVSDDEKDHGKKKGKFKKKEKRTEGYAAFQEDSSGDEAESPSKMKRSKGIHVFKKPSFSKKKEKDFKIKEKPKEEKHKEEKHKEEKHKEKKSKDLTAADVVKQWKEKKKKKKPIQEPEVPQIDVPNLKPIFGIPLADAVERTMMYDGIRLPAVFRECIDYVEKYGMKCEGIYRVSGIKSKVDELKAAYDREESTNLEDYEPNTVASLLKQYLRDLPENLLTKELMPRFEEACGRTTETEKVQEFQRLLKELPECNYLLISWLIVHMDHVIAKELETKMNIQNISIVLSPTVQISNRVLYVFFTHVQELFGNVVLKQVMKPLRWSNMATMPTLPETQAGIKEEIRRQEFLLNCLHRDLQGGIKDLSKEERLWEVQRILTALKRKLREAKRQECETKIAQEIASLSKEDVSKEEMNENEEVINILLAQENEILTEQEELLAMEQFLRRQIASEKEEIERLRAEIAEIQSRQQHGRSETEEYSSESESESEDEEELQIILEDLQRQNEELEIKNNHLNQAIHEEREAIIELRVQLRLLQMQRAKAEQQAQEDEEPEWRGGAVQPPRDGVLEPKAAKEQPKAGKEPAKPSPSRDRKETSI
UniProt P53041, sequence (P53041 whole entry): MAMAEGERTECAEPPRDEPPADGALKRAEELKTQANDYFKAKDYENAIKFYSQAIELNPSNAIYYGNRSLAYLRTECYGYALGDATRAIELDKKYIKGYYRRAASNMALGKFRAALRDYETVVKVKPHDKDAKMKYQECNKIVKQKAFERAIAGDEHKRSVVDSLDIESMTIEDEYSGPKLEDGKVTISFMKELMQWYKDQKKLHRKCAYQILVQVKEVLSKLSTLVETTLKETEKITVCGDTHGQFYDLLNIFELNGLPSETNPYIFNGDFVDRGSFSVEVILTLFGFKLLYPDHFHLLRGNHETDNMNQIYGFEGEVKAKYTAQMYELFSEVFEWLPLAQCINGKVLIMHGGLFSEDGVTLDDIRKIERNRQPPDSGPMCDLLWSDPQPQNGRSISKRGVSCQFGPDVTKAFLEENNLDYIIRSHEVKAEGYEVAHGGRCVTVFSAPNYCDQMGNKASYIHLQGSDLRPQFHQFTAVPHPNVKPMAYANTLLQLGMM
UniProt Q9H5N1, sequence (Q9H5N1 whole entry): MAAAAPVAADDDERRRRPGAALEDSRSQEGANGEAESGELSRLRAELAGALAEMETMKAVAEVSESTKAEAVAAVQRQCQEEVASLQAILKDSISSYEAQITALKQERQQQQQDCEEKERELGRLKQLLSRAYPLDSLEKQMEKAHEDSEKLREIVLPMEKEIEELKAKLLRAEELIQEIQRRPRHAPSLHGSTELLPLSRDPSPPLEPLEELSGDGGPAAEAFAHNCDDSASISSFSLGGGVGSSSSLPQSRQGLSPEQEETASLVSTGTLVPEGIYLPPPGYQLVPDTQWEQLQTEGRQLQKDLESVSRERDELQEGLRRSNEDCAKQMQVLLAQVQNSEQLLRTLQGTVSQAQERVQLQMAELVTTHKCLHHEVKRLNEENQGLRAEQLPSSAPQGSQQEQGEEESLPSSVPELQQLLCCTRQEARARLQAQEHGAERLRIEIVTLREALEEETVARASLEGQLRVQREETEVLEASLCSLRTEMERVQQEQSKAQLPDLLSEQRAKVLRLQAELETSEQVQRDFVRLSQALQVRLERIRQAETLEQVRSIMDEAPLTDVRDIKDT
UniProt O43688, sequence (O43688 whole entry, looked up): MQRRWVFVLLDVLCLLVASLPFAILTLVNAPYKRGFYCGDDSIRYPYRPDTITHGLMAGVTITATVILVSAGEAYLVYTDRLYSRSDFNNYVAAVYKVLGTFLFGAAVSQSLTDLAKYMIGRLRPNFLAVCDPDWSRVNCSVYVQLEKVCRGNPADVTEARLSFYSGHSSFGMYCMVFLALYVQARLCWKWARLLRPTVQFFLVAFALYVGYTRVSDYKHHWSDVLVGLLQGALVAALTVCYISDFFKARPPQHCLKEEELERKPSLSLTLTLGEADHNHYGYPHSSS

Row | Target | thermal stability z-score (lipoamide; [1]) | thermal stability z-score (lipoamide; arsenate co-treatment: none) | thermal stability z-score (potassium arsenate)
1 | RACK1 (UniProt P63244) | 0.56 | 0.4 | -0.92
2 | SETD3 (UniProt Q86TU7) | -0.479 | -0.251 | 0.0633
3 | RPL31 (UniProt P62899) | -0.223 | -0.0856 | -0.8
4 | SEC11C (UniProt Q9BY50) | -0.973 | -0.842 | 0.222
5 | TTC33 (UniProt Q6PID6) | 0.242 | 0.0666 | -0.664
6 | UBE2Z (UniProt Q9H832) | -0.25 | -0.264 | -0.55
7 | HEATR5A (UniProt Q86XA9) | -0.931 | 0.157 | 0.782
8 | VAPA (UniProt Q9P0L0) | 0.25 | -0.0574 | -1.14
9 | CDK17 (UniProt Q00537) | 1.07 | 0.395 | -0.0969
10 | ARHGAP18 (UniProt Q8N392) | 1.13 | 1.59 | 1.21
11 | ATP5D (UniProt P30049) | 1.09 | 0.762 | 0.463
12 | PLPP2 (UniProt O43688) | -0.387 | -0.14 | -0.114
13 | NASP (UniProt P49321) | -0.412 | 0.0851 | 0.578
14 | HMOX2 (UniProt P30519) | 0.676 | 1.34 | 0.895
15 | VARS (UniProt P26640) | 0.0159 | -0.0112 | 0.373
16 | UBL4A (UniProt P11441) | 0.683 | 1.2 | 1.11
17 | ATP6AP2 (UniProt O75787) | -2.63 | -2.3 | -0.366
18 | KXD1 (UniProt Q9BQD3) | 0.543 | 0.711 | 0.28
19 | RALBP1 (UniProt Q15311) | 0.0469 | 0.055 | 0.00922
20 | PGLS (UniProt O95336) | 0.924 | -0.683 | -1.3
21 | CHMP1A (UniProt Q9HD42) | 0.125 | 0.254 | 0.38
22 | SMC1A (UniProt Q14683) | 0.323 | 0.28 | -0.186
23 | WDR73 (UniProt Q6P4I2) | 0.0525 | -0.0893 | -0.351
24 | PIBF1 (UniProt Q8WXW3) | -0.108 | -0.184 | -0.0727
25 | NOA1 (UniProt Q8NC60) | 0.222 | 0.0658 | -0.0924
26 | MAEA (UniProt Q7L5Y9) | -0.402 | -0.993 | -0.343
27 | CHSY1 (UniProt Q86X52) | -0.212 | -0.333 | -0.171
28 | RPL34 (UniProt P49207) | 0.331 | 0.134 | -1.17

Row | Target | thermal stability z-score (lipoamide; [1]) | thermal stability z-score (lipoamide; arsenate co-treatment: none) | thermal stability z-score (potassium arsenate)
29 | POP7 (UniProt O75817) | -0.211 | 0.214 | 0.592
30 | PPP5C (UniProt P53041) | 0.859 | 0.0455 | 0.649
31 | ORC5 (UniProt O43913) | -0.0478 | 0.0761 | -0.065
32 | STAG1 (UniProt Q8WVM7) | 0.115 | -0.148 | -0.00763
33 | BCL9L (UniProt Q86UU0) | 0.0577 | 0.096 | -0.128
34 | UBE2E1 (UniProt P51965) | 0.456 | 0.441 | 11.8
35 | HMGN2 (UniProt P05204) | 1.04 | 0.752 | 0.0894
36 | AAGAB (UniProt Q6PD74) | 0.334 | 0.843 | 2.05
37 | EIF4H (UniProt Q15056) | 0.493 | 0.714 | 0.688
38 | NUDT2 (UniProt P50583) | -0.303 | -0.0026 | -0.0285
39 | GNB4 (UniProt Q9HAV0) | 0.329 | 0.753 | -0.65
40 | RABEP2 (UniProt Q9H5N1) | 0.129 | 0.15 | 1.26
41 | PRCC (UniProt Q92733) | 0.409 | -0.0293 | 0.465
42 | ZMAT2 (UniProt Q96NC0) | -0.00196 | -0.398 | -1.13
43 | LETM1 (UniProt O95202) | 0.0577 | 0.374 | 0.0137
44 | RMDN3 (UniProt Q96TC7) | -0.522 | -0.501 | 0.289
45 | PSMA4 (UniProt P25789) | 1.29 | 0.788 | 0.411
46 | SIL1 (UniProt Q9H173) | -3.15 | -2.4 | 1.44
47 | CAT (UniProt P04040) | 0.883 | 1.41 | 0.346
48 | ZFYVE16 (UniProt Q7Z3T8) | -0.45 | 0.222 | -0.676
49 | FAM21A (UniProt Q641Q2) | 0.0165 | -0.365 | 0.352
50 | ATP2B4 (UniProt P23634) | -0.147 | -0.0358 | -1.05
51 | DCBLD2 (UniProt Q96PD2) | 0.0564 | 0.109 | -0.505
52 | SEH1L (UniProt Q96EE3) | 0.886 | 0.611 | 0.803
53 | NOS1AP (UniProt O75052) | 0.676 | -0.0802 | -1.45
54 | BRF1 (UniProt Q92994) | -0.0333 | -0.111 | 0.035
55 | ATP6V1A (UniProt P38606) | -0.368 | -0.529 | -0.613
